Assay results taken from US20240309066A1, “MEANS AND METHODS FOR THE TREATMENT OF CALCIUM CRYSTAL DEPOSITION DISEASES” (UNIVERSITEIT MAASTRICHT, priority 2021, published 2024).
[ ]: non-standard residue; d: D form.

Key:
[1] = system: Vascular smooth muscle cells (VSMC); test: Calcium-induced vascular smooth muscle cell calcification model; format: cell-based, human; details: 7 days, 4.5 mM ionic calcium, 20 μM peptide
Description: FIG. 3: Inhibition of cellular calcification of human articular chondrocytes, vascular smooth muscle cells and bone marrow stromal cells by the peptide according to SEQ ID NO: 1. Representative phase-contrast microscopy images of in vivo cell assays are shown. • A) Human articular chondrocytes (HACs) were stimulated for 7 days with 1 mM ATP and with or without 20 μM of the peptide. Results were obtained from three chondrocyte donors with three biological replicates each. • B) Vascular smooth muscle cells (VSMC) were stimulated for 7 days with 4.5 mM ionic calcium in the presence or absence of 20 μM of peptide. […] Scale bars indicate 200 μm. • Right panels: quantification of total calcium precipitation per well measured with the Randox total calcium assay and normalized to total protein. […]
(§1) Quantification of deposited calcium was carried out using a calcium determination kit (Randox, London, United Kingdom) according to the manufacturer's instruction, after hydrolysis of mineral deposits in 0.1M HCl. […]
Human primary smooth muscle cells (VSMCs) were derived from tissue explants from patients undergoing surgery. […] Success of the isolation was determined by immunofluorescence staining for positive expression of alpha-smooth muscle actin (αSMA), smooth muscle protein 22-alpha (SM22α), phosphorylated myosin light chain 2 (pMLC) and absence of S100 C Calcium Binding Protein 4 (S100A4). […]

[2] = Total calcium, phosphate and protein measurements in pellets of in vitro precipitates; format: biochemical; details: 24 hours; control 14%
Description: To test this, particles were allowed to form for 2 or 24 hours in the presence or absence (control) of bFetuin or the peptide according to SEQ ID NO: 1. and subsequently harvested by centrifugation, washed and dissolved in acid, followed by total calcium, phosphate and protein measurements in the pellet and the supernatant.
Quantification of deposited calcium was carried out using a calcium determination kit (Randox, London, United Kingdom) according to the manufacturer's instruction, after hydrolysis of mineral deposits in 0.1M HCl. Calcium measurements were normalized to protein content using micro DC Protein Assay (Termo Scientifc, Bleiswijk, the Netherlands). To be able to measure protein content, an equal amount of 0.1M NaOH was used to neutralize the acid and 0.1% SDS (final concentration) was added to lyse cells in the cellular calcification assays.
Quantification of deposited phosphate was carried out using a phosphate colorimetric assay (Sigma, MK030) according to manufacturer's instruction after solubilisation of precipitates in 0.1M HCL.

[3] = In vitro calcium phosphate precipitation assay; format: biochemical; details: for Precipitation inhibition: absorption measurement before SEM processing
Description: To evaluate the inhibitory capacity of the peptide according to SEQ ID NO: 1, we utilized a well-established in vitro calcium phosphate precipitation assay (17-19) as described in example 2.
Calcium precipitation assays were performed essentially as described before with minor adaptations (19). 2.4 mM ionic calcium (0.1M stock) was added to a 50 mM Tris/HCL buffer (pH 7.4) in 1.5 ml Eppendorf tubes. Peptide or bFetuin were added and incubated for 15 minutes at room temperature. Subsequently, 1.6 mM phosphate buffer (0.1M stock) was added and the mixture was incubated for 120 minutes at 37° C.
Data were normalized to the first positive control (normalized to 100%) in each experiment. As an internal reference for precipitation inhibition, we used 1 mg/ml, 0.5 mg/ml and 0.25 mg/ml bovine Fetuin (bFetuin, Sigma-Aldrich, #F2379) in each experiment. After 2 hours, samples were transferred to cuvettes (1.0 ml reactions) and absorbance was measured at A620 in a plate reader with a plate reader (Biorad). Each condition consisted of three biological replicates.

[4] = system: Human articular chondrocytes (HACs); test: ATP-induced human articular chondrocyte calcification model; format: cell-based; details: 7 days, 1 mM ATP, 20 μM peptide, vs control with ATP
Description: (§2) FIG. 3: Inhibition of cellular calcification of human articular chondrocytes, vascular smooth muscle cells and bone marrow stromal cells by the peptide according to SEQ ID NO: 1. Representative phase-contrast microscopy images of in vivo cell assays are shown. • A) Human articular chondrocytes (HACs) were stimulated for 7 days with 1 mM ATP and with or without 20 μM of the peptide. Results were obtained from three chondrocyte donors with three biological replicates each. • B) Vascular smooth muscle cells (VSMC) were stimulated for 7 days with 4.5 mM ionic calcium in the presence or absence of 20 μM of peptide. Results were obtained from three VSMC donors with three biological replicates each. • C) BMSCs were differentiated for 21 days in osteogenic differentiation medium containing beta-glycerophosphate (BGP) in the pre- or absence of 2.1 μM of peptide. BMSC; one donor with four biological replicates was used. • Left panels: phase-contrast images were obtained at the final day of each experiment. […] Scale bars indicate 200 μm. • Right panels: quantification of total calcium precipitation per well measured with the Randox total calcium assay and normalized to total protein. […]
as §1

[5] = system: Bone marrow derived stromal cells (BMSCs); test: Beta-glycerophosphate-induced BMSC osteogenic differentiation model; format: cell-based, human; details: 21 days osteogenic differentiation medium with BGP, 2.1 μM peptide
Description: as §2, §1

rat osteoarthritis model = test: Rat osteoarthritis model (medial meniscal tear, collateral ligament transection); format: in vivo, Lewis rats
Description: FIG. 4: Intra-articular injection of the peptide ameliorates cartilage histopathology and improves animal mobility in a rat osteoarthritis model. Osteoarthritis was induced by introducing a surgical tear of the medial meniscus and transection of the collateral ligament (N=40). Bi-weekly intra-articular injections of 50 μl peptide with a concentration of 20 μM or 50 μl vehicle (0.9% NaCl) were performed (N=20 per group). Necropsy was performed at day 28, followed by histological analyses according to the OARSI scoring system.
• A) Representative toluidine blue stained tissue sections from the best, average and worst histological appearance. Cartilage tissue is stained in dark blue. • B) The OARSI score was obtained by multiplying grade and stage of cartilage damage per animal by two blinded observers. Statistical comparison was done with a two-tailed t-test. *=p. value<0.05. • C) Gait analyses score at day 20 of the experiment. Four measurements per animal were performed and each dot represents the average of one animal in the graph. Statistical significance between groups was determined with a Mann-Whitney U test. *=p. value<0.05.
We also evaluated the effect of bi-weekly intra-articular injection of the peptide in a rat osteoarthritis model (FIG. 4). Osteoarthritis was induced with a surgical tear of the medial meniscus and transection of the collateral ligament (N=40). […]

For “peptide according to SEQ ID NO: 1: circular polypeptide of 30 D-amino acids LIYRQPNCDDPETEEAALVAIDYIAPHGPG, D-Leucine at position 1 linked to D-Glycine at position 30 (cyclo([dL][dI][dY][dR][dQ][dP][dN][dC][dD][dD][dP][dE][dT][dE][dE][dA][dA][dL][dV][dA][dI][dD][dY][dI][dA][dP][dH]G[dP]G); SMILES CC[C@@H](C)[C@H]1NC(=O)[C@@H](C)NC(=O)[C@@H](C(C)C)NC(=O)[C@@H](CC(C)C)NC(=O)[C@@H](C)NC(=O)[C@@H](C)NC(=O)[C@@H](CCC(=O)O)NC(=O)[C@@H](CCC(=O)O)NC(=O)[C@@H]([C@H](C)O)NC(=O)[C@@H](CCC(=O)O)NC(=O)[C@H]2CCCN2C(=O)[C@@H](CC(=O)O)NC(=O)[C@@H](CC(=O)O)NC(=O)[C@@H](CS)NC(=O)[C@@H](CC(N)=O)NC(=O)[C@H]2CCCN2C(=O)[C@@H](CCC(N)=O)NC(=O)[C@@H](CCCNC(=N)N)NC(=O)[C@@H](Cc2ccc(O)cc2)NC(=O)[C@@H]([C@H](C)CC)NC(=O)[C@@H](CC(C)C)NC(=O)CNC(=O)[C@H]2CCCN2C(=O)CNC(=O)[C@@H](Cc2c[nH]cn2)NC(=O)[C@H]2CCCN2C(=O)[C@@H](C)NC(=O)[C@@H]([C@H](C)CC)NC(=O)[C@@H](Cc2ccc(O)cc2)NC(=O)[C@@H](CC(=O)O)NC1=O; listed as Homo Sapiens)”, the inhibition of calcification [1] was 58-61%, the “phosphate content in pellet” value [2] was 9% and the Precipitation inhibition ([3]; 20 μM peptide, 2 hours) was ~50%. For the same molecule, the “efficiency of inhibition of in vitro calcium phosphate precipitation, comparison” value ([3]; compared with bFetuin) was “more efficiently than bFetuin”, the “concentration range down to which activity remained” value ([3]; dilution series in steps of 10, 2 hours) was “remained active until the attomolar concentration range” and the “concentration able to statistically significantly inhibit precipitation compared to control” value ([3]; dilution series, 2 hours) was 20.6 aM. The “concentration not able to statistically significantly inhibit precipitation” value ([3]; dilution series, 2 hours) was 2.6 aM, the inhibition of calcification [4] was 22-33% and the “inhibition of calcium precipitation” value [5] was 81%. For the same molecule, the “reduction of histopathological OA score (OARSI)” value (rat osteoarthritis model; day 28 post-surgery, bi-weekly intra-articular 50 μl of 20 μM, vs vehicle) was 38% and the “animals having a normal gait” value (rat osteoarthritis model; gait analysis day 20, bi-weekly intra-articular 50 μl of 20 μM, vehicle 5/20) was 16/20.

B1: bFetuin: bovine Fetuin (Sigma-Aldrich, #F2379), positive control for precipitation inhibition (protein, UniProt Q58D62 19-387, looked up)
Fetuin-B: TSPPQPAARPSSLLSLDCNSSYVLDIANDILQDINRDRKDGYVLSLNRVSDAREHRQEAGLGSLFYFTLDVLETGCHVLSRTSWKNCEVRIFHESVYGQCKAIFYINKEKRIFYLPAYNCTLRPVSQSAIIMTCPDCPSTSPYDLSNPRFMETATESLAKYNSESPSKQYSLVKITKTSSQWVFGPAYFVEYLIKESPCVKSEGSSCALESPGSVPVGICHGSLGEPQGNQGKIISVTCSFFNSQAPTPRGENATVNQRPANPSKTEELQQQNTAPTNSPTKAVPKGSVQYLPDWDKKREGSQEKDPVETFPVQLDLTTNPQGESLDVSFLFQEPMEEKVVVLPFPSKEQRSAECPGPAQKGYPFILPS
With B1 the “phosphate content in pellet” value [2] was 9%, the Precipitation inhibition ([3]; 0.5 mg/ml bFetuin, 2 hours) was ~50% and the inhibition of precipitation ([3]; 1 mg/ml (20.6 μM), positive control) was “completely inhibit precipitation”. The “concentration at which the inhibitory effect is lost” value ([3]; dilution series, 2 hours, molar equivalent of μg/ml) was 20.6 to 200.6 nM.
